# Measured values published in patent US7049321B2, “Methods and pharmaceutical compositions for treatment of central and peripheral nervous system disorders and compounds useful therefor” (Israel Institute for Biological Research, priority 2002, dated 2006).
# “Also recorded” adds a separate entry of the source. Like-named read-outs stand apart in the source and are kept apart here.
# Assays:
# Aging microcebes = test: Effects in aging microcebes; format: in vivo; details: chronic treatment for 18 months
# From the text: Aging microcebes show similar cognitive deficits and cerebral lesions to those observed in aging humans and in AD patients. Thus this is a good animal model for AD, mimicing the three major hallmarks in AD {plaques (Aβ), paired helical filaments (hyperphophorylated and aggregated τ) and cognitive dysfunction}. This model may also be used to mimic MCI conducive to AD
# [1] = rat, in vivo, po
# Description: (§2) This calculation was based on the brain weight (2 gr) vs. total plasma volume (14 ml).
# muscarinic receptor = test: [3H]OXO-M competition binding; details: rat cortex
# From the text: The ability of a test compound to displace [^3H]OXO-M binding provides a measure for the affinity of the test compound to the receptor agonist binding site.
# [2] = test system: adrenergic, benzodiazepine, dopamine, GABA, glutamate, glycine, histamine, nicotinic, serotonin sites, ChAT, GAD, MAO-A, MAO-B; test: Binding panel of other receptors and enzymes (AF267B)
# AF64A-injected rats = test: Morris water maze in AF64A-injected rats; format: in vivo, Sprague-Dawley rats
# Description: AF64A or saline-injected (6 months old) Sprague-Dawley rats were tested in the Morris Water Maze (MWM) task. The paradigm used assesses spatial learning abilities in a reference memory regimen, and involves training (days 1–4), transfer test (Probe trial—day 4, 3 min following the last training trial) and reversal test (day 5).
# Drugs and PBS were administered once a day for 5 days before starting the behavioral testing, and then for the duration of the 5-day experiment, 30 min before testing.
# The three measures, escape latency, path length and swimming speed were analyzed by MANOVA, followed by simple main effects contrast analysis.
# rabbits with nbm lesions = test: CSF and cortical Aβ in hypocholinergic (nbm-lesioned) rabbits; format: in vivo, New Zealand White rabbits; details: 4 weeks
# From the text: It is known that experimentally-induced cortical cholinergic denervation results in biochemical elevations of cortical Aβ concentrations and in histologic Aβ deposition (Beach et al, Neurosci Lett 283: 9–12, 2000), and that administration of muscarinic Ml-selective agents to normal animals decreases CSF AP concentrations {Beach et al Brain Res. 905: 220–223, 2001}.
# Twenty-eight female New Zealand White rabbits, about 2.5 kg each (young adults) were used. Twenty-one received lesions of the cholinergic nucleus basalis magnocellularis (nbm). The lesion was accomplished with unilateral i.c.v. injections of an immunotoxin consisting of the ribosomal toxin saporin conjugated to the monoclonal antibody ME20.4, which is directed against the low-affinity neurotrophin receptor, p75. The ME20.4 antibody is made against monkey p75 and also recognizes rabbit p75. The dose of immunotoxin was 32.4 μg in 12 μl; this was delivered to the right lateral ventricle 2 mm lateral to the bregma. Seven animals received i.c.v. injections of sterile normal saline (sham lesion). Animals which received the immunotoxin were divided into 3 groups of 7. […] Another group received physostigmine hemisalicylate in normal saline by s.c. osmotic pump at a daily dose of 3 mg/kg. The third group received twice-daily sterile saline s.c. injections. The animals which received a sham lesion were implanted with s.c. osmotic pumps filled with sterile normal saline. Animals were euthanized 4 weeks after surgery. […] Cerebrospinal fluid was taken from the cisterna magna of all animals at the time of sacrifice; the brain was removed and sliced coronally into 0.5 cm slices. […] The other slices were frozen on sheets of dry ice (the other slices are the non-fixed 0.5 cm coronal slices of cerebrum, brainstem and cerebellum).
# [3] = mouse, in vivo
# Description: as §2
# Serotonin, 5HT3 = Serotonin, 5HT3 (Homo sapiens, UniProt P46098); test: Serotonin 5HT3 binding; details: at 10^−4 M
# M5 mAChR = target: T1, M5 mAChR (Homo sapiens, UniProt P08912); test: Arachidonic acid (AA) release, M5; format: cell-based
# T1 construct: expressed in transfected cells
# CYP2C9 = CYP2C9 (Homo sapiens, UniProt P11712); test: Cytochrome P450 inhibition, CYP2C9; format: in vitro ADME; details: up to 10 μM
# Description: Cytochrome P450 activity can be an indicator for potential drug-drug interactions. AF292 was evaluated in a microtiter plate assay for P450 inhibition.
# [4] = test system: Isolated Guinea Pig Right Atrium; test: Isolated guinea pig right atrium
# Description: • 1. Astemizole (human ether-a-go-go related gene (HERG) Channel) Binding Assay. […] Isolated Guinea Pig Right Atrium (atrial fibrillation). […] Effects of AF292 (dose 5 mg/kg orally) on cardiac electrophysiological, cardio-haemodynamic in instrumented, awake dogs. Healthy trained and chronically instrumented female Beagle dogs of varying age and ranging in body weight from 9.4 to 12 kg, were used for recording of the cardiovascular parameters: heart rate, diastolic and systolic blood pressure, pressure rate product, LV dp/dt max, LV dp/dt max/pd, LV dp/dt min, cardiac output, stroke volume, systemic vascular resistance and the ECG parameters (PQ-, QRS-, QT-, QTcBazett-(QTcB), QTcFridericia-(QTcF) and QTcVan de Water-(QTcVdW) interval duration and QT-dispersion. During the last 18 hours prior to the experiments, the dogs had no access to food. Water was available ad libitum. At the beginning of each experiment, control values of the various parameters were recorded for at least 30 min. Thereafter, 5 mg/kg of AF292 (n=4) or the corresponding volume of the solvent (n=4) was administered orally by gavage. The various haemodynamic parameters were recorded continuously for 4 hours thereafter.
# M3 (human) = M3 (human) (Homo sapiens, UniProt P20309); test: PI hydrolysis in cells transfected with human M3; format: cell-based; parameters: expressed in transfected cells
# Caco-2 monolayers = test: Caco-2 cell permeability; format: in vitro ADME, human
# Description: (§1) This test is used to determine intestinal permeability of tested compounds. Caco-2 cells, when grown on semipermeable filters, spontaneously differentiate in culture to form confluent monolayers which both structurally and functionally resemble the small intestinal epithelium. Because of this property they are useful as an in vitro model for the study of drug absorption and metabolism during absorption in the intestinal mucosa. Caco-2 monolayers were grown to confluence on collagen-coated, microporous, polycarbonate membranes in 12 well plates and permeability of the test material was determined.
# Caco-2 cell permeability = format: in vitro ADME, human; details: human, Caco-2; bi-directional assay; read-out: average permeability coefficient (Papp)
# Description: as §1
# trihexyphenidyl rats = test: Passive avoidance in trihexyphenidyl-treated rats; format: in vivo, Wistar rats; details: 0.03 mg/kg, po, 72 hrs delay; DDW 93.1±29.0
# Description for physchem: as §2
# Chain of M3 (human) (P20309 whole entry): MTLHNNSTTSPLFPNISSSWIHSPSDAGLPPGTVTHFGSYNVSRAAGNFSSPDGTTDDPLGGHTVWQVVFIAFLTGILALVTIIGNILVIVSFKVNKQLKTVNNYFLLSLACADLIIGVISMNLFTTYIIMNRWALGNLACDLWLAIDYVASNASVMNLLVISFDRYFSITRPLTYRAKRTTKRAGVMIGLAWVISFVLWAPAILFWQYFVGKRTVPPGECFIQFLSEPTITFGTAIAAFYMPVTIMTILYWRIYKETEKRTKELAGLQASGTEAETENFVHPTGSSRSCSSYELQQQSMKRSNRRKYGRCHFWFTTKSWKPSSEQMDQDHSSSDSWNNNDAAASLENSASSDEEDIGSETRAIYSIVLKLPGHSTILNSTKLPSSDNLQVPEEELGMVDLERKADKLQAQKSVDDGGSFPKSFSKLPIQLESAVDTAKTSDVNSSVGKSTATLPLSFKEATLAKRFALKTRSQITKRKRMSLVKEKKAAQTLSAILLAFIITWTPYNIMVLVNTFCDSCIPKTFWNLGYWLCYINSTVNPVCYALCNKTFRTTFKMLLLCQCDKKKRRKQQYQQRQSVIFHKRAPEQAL
# T1 sequence (P08912 whole entry): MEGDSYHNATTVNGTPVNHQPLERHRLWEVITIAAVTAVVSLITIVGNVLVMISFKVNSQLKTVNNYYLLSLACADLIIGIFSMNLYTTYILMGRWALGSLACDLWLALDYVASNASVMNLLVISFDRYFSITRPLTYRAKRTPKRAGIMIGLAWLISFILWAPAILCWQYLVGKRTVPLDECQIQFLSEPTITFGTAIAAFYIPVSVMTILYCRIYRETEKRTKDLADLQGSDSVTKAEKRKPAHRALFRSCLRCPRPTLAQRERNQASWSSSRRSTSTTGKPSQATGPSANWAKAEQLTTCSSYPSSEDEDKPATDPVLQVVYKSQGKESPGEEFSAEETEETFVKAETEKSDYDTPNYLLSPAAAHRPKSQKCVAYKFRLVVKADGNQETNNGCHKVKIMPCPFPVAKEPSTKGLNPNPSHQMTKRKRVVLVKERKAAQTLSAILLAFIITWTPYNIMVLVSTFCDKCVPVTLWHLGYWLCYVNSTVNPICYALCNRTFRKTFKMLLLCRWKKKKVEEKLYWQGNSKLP
# Chain of CYP2C9 (P11712 whole entry): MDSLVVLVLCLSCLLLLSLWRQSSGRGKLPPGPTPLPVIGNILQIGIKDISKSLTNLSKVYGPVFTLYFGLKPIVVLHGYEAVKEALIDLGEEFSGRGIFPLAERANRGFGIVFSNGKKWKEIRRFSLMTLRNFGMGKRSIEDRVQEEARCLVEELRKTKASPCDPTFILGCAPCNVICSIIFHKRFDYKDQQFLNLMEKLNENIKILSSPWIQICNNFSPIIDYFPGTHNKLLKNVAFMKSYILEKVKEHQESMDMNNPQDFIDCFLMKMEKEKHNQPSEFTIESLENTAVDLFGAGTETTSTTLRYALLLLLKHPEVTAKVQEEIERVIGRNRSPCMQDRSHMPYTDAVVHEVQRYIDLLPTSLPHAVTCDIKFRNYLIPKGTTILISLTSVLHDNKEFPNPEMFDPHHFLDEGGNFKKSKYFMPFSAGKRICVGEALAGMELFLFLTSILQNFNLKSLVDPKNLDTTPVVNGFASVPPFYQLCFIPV
# Chain of Serotonin, 5HT3 (P46098 24-478): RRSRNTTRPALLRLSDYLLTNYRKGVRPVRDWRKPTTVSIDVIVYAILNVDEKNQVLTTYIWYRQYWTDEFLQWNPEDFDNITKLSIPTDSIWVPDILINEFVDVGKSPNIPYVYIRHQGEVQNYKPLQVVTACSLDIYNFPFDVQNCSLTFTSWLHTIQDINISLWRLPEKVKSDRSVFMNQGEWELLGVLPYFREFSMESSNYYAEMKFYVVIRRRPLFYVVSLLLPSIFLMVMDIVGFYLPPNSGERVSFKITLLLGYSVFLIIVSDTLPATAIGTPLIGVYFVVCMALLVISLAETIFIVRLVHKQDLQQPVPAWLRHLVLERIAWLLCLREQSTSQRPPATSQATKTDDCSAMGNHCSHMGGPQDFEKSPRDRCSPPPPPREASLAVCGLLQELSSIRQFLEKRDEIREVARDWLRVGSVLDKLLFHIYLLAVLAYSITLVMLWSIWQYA
compound,measurement,setting,value
"CC1=NCC2(CCN(C)CC2)S1 [AF150(S), 2,8-Dimethyl-1-thia-3,8-diaza-spiro[4.5]dec-2-ene]",Astrogliosis and inflammation,Aging microcebes,decreased astrogliosis and inflammation
same,Cognitive and behavioral impairments,Aging microcebes,improved the cognitive and behavioral impairments
same,"Hyperphosphorylated τ, aggregated τ neurons, paired helical filaments",Aging microcebes,decreased hyperphosphorylated τ proteins
"CC[C@@H]1SC2(CCN(C)CC2)NC1=O [AF267B, (S)-2-ethyl-8-methyl-1-thia-4,8-diaza-spiro[4.5]decan-3-one]",% of the compound found in the brain (Cmax brain/Cmax plasma),[1]; female,16%
same,% of the compound found in the brain (Cmax brain/Cmax plasma),[1]; male,25%
same,Ki,muscarinic receptor,1620 ± 340 nM
same,pKa,physchem,7.8
same,Binding to panel,[2],no binding at all
same,Reversal test,AF64A-injected rats; 1 mg/kg,tendency for improvement
same,"Training, escape latency",AF64A-injected rats; 1 mg/kg,tendency for improvement
same,Reversal test,AF64A-injected rats; 3 mg/kg,tendency for impairment
same,Training performance,AF64A-injected rats; 3 mg/kg,tended to impair performance
same,Learning (training),"AF64A-injected rats; 0.3, 1, 3 mg/kg po",no significant effect on learning
same,"Probe trial, spatial bias (escape latency)",AF64A-injected rats; all doses,complete spatial bias
same,CSF Aβ (4 kDa band),rabbits with nbm lesions; 1 mg/kg s.c. twice daily,noticeable decrease
same,CSF sAPPα band intensity,rabbits with nbm lesions; 1 mg/kg s.c. twice daily,no significant difference
same,"Histologic Aβ deposition, % of the lesioned, untreated group",rabbits with nbm lesions,12%
same,time detected in the brain after dosing,[3],2 to 240 min
same,inhibition at 100 µM,"Serotonin, 5HT3",51.3%
"CC[C@@H]1SC2(CCNCC2)NC1=O [AF292, (S)-2-Ethyl-1-thia-4,8-diaza-spiro[4.5]decan-3-one]","AA release, M5 mAChR, agonist activity",M5 mAChR,"inactive as an agonist; also recorded: PI, AA: M5 mAChR - no effect as agonist"
same,Inhibition of CYP2C9,CYP2C9,did not induce significant inhibition
same,Contractile force,[4],no significant effect on contractile force
same,Contractile rate,[4],tended to slightly reduce the contractile rate
same,"PI turnover vs. carbachol, M3",M3 (human); human M3,"No activity; also recorded: PI., AA: M3 mAChR: Not active as agonist"
same,Kb,"M3 (human); read-out: pKb, M3 antagonist (converted)",660 nM
same,Absorption potential ranking,Caco-2 monolayers,high absorption potential
same,Papp,Caco-2 cell permeability,17.4 ×10⁻⁶ cm/s
same,Retention latency,trihexyphenidyl rats,225.9 ± 36 s
